Results taken from paper PMC7360862, “Sub-Acute Treatment of Curcumin Derivative J147 Ameliorates Depression-Like Behavior Through 5-HT1A-Mediated cAMP Signaling” (Frontiers in Neuroscience, 2020).

Experiments:
5-HT1B receptor [1] = target: T1, 5-HT1B receptor (Mus musculus, UniProt P28334); assay: competitive radioligand binding, mouse frontal cortex membranes, reference antagonist measured in the same laboratory
T1 construct: gene Htr1b; native receptor in mouse frontal cortex membranes

5-HT1B receptor [2] = target: T1, 5-HT1B receptor; assay: competitive radioligand binding, mouse frontal cortex membranes
5-HT1A receptor = target: T2, 5-HT1A receptor (Mus musculus, UniProt Q64264); assay: competitive radioligand binding ([3H]-8-OH-DPAT displacement), mouse frontal cortex membranes
T2 construct: gene Htr1a; native receptor in mouse frontal cortex membranes
T2 sequence (Q64264 1-421): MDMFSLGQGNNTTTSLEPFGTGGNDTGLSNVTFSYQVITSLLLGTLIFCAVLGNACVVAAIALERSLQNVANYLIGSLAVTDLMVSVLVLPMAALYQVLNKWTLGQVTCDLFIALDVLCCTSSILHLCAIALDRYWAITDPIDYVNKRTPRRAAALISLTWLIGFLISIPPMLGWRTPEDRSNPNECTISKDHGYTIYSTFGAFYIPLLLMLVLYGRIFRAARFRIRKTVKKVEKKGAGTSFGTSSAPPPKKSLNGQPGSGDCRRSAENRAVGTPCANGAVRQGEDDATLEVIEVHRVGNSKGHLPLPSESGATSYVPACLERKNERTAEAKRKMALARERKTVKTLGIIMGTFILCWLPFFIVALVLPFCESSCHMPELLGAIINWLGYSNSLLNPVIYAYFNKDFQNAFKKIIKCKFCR

T1 sequence (P28334 whole entry): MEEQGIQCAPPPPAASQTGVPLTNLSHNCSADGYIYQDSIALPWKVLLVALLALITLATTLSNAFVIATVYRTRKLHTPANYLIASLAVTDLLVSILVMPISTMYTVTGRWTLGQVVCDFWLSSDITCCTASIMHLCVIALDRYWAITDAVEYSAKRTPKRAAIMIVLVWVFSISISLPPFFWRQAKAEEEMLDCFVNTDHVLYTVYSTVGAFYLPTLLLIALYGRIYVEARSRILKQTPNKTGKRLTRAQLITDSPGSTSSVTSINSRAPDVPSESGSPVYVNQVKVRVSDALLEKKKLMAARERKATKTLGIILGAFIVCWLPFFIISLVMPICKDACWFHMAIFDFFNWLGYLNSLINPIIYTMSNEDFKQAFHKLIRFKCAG

SMILES	Ki (5-HT1B receptor [1])	Ki (5-HT1B receptor [2])	Ki (5-HT1A receptor)
COc1ccc(NC(=O)c2ccc(-c3ccc(-c4noc(C)n4)cc3C)cc2)cc1N1CCN(C)CC1 [GR-127935]	1.29 nM		
COc1cccc(/C=N/N(C(=O)C(F)(F)F)c2ccc(C)cc2C)c1 [J147]		612 nM	0.42 nM
